# Columns and labels:
# patients with glaucoma = experiment: Loss of IOP lowering upon cessation of chronic topical anti-glaucoma medication (Example A); assay type: in vivo, human; conditions: for mean IOP from baseline on day 28: day 28, after four weeks of topical medication; for mean IOP from baseline on day 30: day 30, after 2 days with no medication
# Description: To examine loss or reduction of a therapeutic effect (i.e. IOP lowering) upon cessation of chronic medication administration used to treatment a chronic ocular condition, three different populations of patients with glaucoma were examined.
# 1. A population of twenty patients with glaucoma was examined.
# [1] = tested on: VEGF165-induced retinal vasculopathy; experiment: Remnant effect after intravitreal triamcinolone acetonide, VEGF165-induced retinal vasculopathy (Example 9); assay type: in vivo, Dutch-belted rabbits; conditions: 48 hours after VEGF165; 4 mg TA removed after one minute
# Experimental: An experiment was carried out which determined existence of a remnant effect (i.e. a therapeutic effect of the active agent when a therapeutic amount of the active agent was not longer present) of intravitreal triamcinolone. Six Dutch-belted rabbits were divided into two groups of three each. After standard pars plana vitrectomy, one group received 4 mg of the glucocorticoid triamcinolone acetonide (TA) in a 0.1 ml volume (Kenalog® 40), and the other group received 0.1 ml of a 5% PLGA (poly lactic/glycolic acid) solution. One minute later the TA or PLGA was removed with a subtotal vitrectomy and soft tip needle. Forty-eight hours after the surgery VEGF165 (500 ng/50 μl) was injected intravitreally via a 29 gauge needle to induce retinal vasculopathy and assess a pharmacological action of any remnant effect of either TA or PLGA. Assessment of retinal color fundus imaging, fluorescein angiography (FA), and fluorometry was made upon VEGF administration and 48 hours following such administration to assess leak from the retina vasculature as a result of VEGF165 administration, and the effect of either TA or PLGA on such leakage.
# glaucoma = conditions: after stopping topical medication; cited from earlier work
# [2] = 0.1% ophthalmic suspension, 1 drop 4 times a day (approximately 200 μg per day); cited from earlier work
smiles,measurement,setting,value
"CCNC(=O)CCC/C=C\C[C@@H]1[C@@H](/C=C/[C@@H](O)CCc2ccccc2)[C@H](O)C[C@@H]1O [Lumigan, Bimatoprost]",mean IOP from baseline on day 28,patients with glaucoma,−8 mm Hg
same,mean IOP from baseline on day 30,patients with glaucoma,−6 mm Hg
"CC1(C)O[C@@H]2C[C@H]3[C@@H]4CCC5=CC(=O)C=C[C@]5(C)[C@@]4(F)[C@@H](O)C[C@]3(C)[C@]2(C(=O)CO)O1 [TA, triamcinolone acetonide]","Fluorophotometry area under the curve, change from baseline",[1],3±65%
Brc1c(NC2=NCCN2)ccc2nccnc12 [brimonidine],washout period (return to baseline IOP) of topical anti-glaucoma medication,glaucoma,two to four and five
same,mean IOP from baseline on day 14,"patients with glaucoma; day 14, after 14 days of topical medication",−2 mm Hg
same,mean IOP from baseline on day 15,"patients with glaucoma; day 15, after 24 hours with no medication",−0.8 mm Hg
C[C@@H]1C[C@H]2[C@@H]3CCC4=CC(=O)C=C[C@]4(C)[C@@]3(F)[C@@H](O)C[C@]2(C)[C@@]1(O)C(=O)CO [dexamethasone],share of the topical dose that reaches the anterior segment,[2],about 1%
CCN[C@H]1C[C@H](C)S(=O)(=O)c2sc(S(N)(=O)=O)cc21 [dorzolamide],washout period (return to baseline IOP) of topical anti-glaucoma medication,glaucoma,two to four
CNC[C@H](O)c1ccc(O)c(O)c1 [epinephrine],washout period (return to baseline IOP) of topical anti-glaucoma medication,glaucoma,about three
CC[C@@H]1C(=O)OC[C@@H]1Cc1cncn1C [pilocarpine],washout period (return to baseline IOP) of topical anti-glaucoma medication,glaucoma,about 48 hours
CC(C)(C)NC[C@H](O)COc1nsnc1N1CCOCC1 [timolol],mean IOP from baseline on day 28,patients with glaucoma,−4 mm Hg
same,mean IOP from baseline on day 30,patients with glaucoma,−2 mm Hg

# — patent US9233071B2, “Methods for treating retinopathy with extended therapeutic effect” (Allergan, Inc., priority 2004, dated 2016)
